From paper PMC8882856, “The affinity and selectivity of α‐adrenoceptor antagonists, antidepressants and antipsychotics for the human α2A, α2B, and α2C‐adrenoceptors and comparison with human α1 and β‐adrenoceptors” (Pharmacology Research & Perspectives, 2022) come the findings set out here.

Assay [1] deals with T1, human α2A‐adrenoceptor (Homo sapiens, UniProt P08913).
T1 sequence (P08913 1-465): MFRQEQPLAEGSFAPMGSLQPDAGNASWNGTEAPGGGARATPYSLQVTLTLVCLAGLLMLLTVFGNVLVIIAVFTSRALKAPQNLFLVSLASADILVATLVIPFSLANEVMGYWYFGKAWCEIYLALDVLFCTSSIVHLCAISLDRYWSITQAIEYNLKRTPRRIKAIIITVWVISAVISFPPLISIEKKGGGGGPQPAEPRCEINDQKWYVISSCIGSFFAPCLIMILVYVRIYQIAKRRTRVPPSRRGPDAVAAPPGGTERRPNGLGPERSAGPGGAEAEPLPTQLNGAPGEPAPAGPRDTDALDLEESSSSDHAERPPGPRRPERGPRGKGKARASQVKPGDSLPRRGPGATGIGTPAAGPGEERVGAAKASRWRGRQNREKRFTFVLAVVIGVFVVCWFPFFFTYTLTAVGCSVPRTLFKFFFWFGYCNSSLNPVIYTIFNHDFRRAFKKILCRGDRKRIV
As to the kind of experiment: cell-based.

Another assay addresses human β2‐adrenoceptor (Homo sapiens, UniProt P07550). In kind it is binding. The following applies: for IC50: read-out: IC50 (log) β2, IC50>top concentration used (converted); for Kd: ^3H‐CGP12177 whole cell binding, log values, mean ± s.e.mean, ^app = apparent KD, 'no binding to' = log top concentration, read-out: Log KD β2 (converted).
Assay [2] addresses T2, human β1‐adrenoceptor (Homo sapiens, UniProt P08588). As to the kind of experiment: cell-based.
Assay [3] concerns the target T3, human α2C‐adrenoceptor (Homo sapiens, UniProt P18825).
T3 sequence (P18825 1-462): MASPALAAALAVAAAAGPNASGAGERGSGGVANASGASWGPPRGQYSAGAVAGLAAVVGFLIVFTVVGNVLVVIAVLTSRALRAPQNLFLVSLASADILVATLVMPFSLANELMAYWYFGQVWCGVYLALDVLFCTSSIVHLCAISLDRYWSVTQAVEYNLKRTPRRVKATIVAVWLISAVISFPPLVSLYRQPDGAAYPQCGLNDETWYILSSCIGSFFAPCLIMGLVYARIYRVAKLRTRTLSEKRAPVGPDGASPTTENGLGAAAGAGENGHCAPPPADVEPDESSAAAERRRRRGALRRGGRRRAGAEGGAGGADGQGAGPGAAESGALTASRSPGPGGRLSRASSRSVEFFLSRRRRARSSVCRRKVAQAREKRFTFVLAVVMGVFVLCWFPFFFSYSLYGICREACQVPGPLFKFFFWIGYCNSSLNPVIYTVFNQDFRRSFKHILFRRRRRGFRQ
As to the kind of experiment: cell-based.

Assay [4] deals with T3, human α2C‐adrenoceptor. As to the kind of experiment: ^3H‐rauwolscine whole cell competition binding, CHO‐α2C cells. The following applies: for Selectivity ratio α2A vs α2C (higher affinity for α2C) / Selectivity ratio α2B vs α2C (higher affinity for α2C): ratio of KD values.
The target in the next assay is T4, human α2B‐adrenoceptor (Homo sapiens, UniProt P18089).
T4 sequence (P18089 1-450): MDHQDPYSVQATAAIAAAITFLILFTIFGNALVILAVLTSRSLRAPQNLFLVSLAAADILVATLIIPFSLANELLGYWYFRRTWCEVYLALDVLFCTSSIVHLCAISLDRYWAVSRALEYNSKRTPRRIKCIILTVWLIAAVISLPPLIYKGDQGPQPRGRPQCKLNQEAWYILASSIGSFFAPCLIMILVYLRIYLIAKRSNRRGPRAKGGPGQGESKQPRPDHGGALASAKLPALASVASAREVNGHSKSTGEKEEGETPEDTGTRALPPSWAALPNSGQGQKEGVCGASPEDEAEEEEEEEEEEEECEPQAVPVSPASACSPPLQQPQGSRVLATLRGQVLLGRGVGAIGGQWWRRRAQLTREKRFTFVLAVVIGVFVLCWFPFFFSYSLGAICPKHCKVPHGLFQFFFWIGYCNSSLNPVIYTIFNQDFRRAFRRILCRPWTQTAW
As to the kind of experiment: ^3H‐rauwolscine whole cell competition binding, CHO‐α2B cells.

For assay [5], the target named is T2, human β1‐adrenoceptor. The following applies: for Log KD β1: mean ± s.e.mean.
In assay [6] the target is T1, human α2A‐adrenoceptor. As to the kind of experiment: ^3H‐rauwolscine whole cell competition binding, CHO‐α2A cells. The following applies: for Selectivity ratio α2A vs α2B (higher affinity for α2A): ratio of KD values.
Where [7] appears, read: given as log KD (negative values), 3H-rauwolscine whole cell binding, CHO cells, mean ± s.e.mean.

SMILES strings stand for the structures. Read-outs that look alike come from different tables or passages of the source.

T2 sequence (P08588 whole entry): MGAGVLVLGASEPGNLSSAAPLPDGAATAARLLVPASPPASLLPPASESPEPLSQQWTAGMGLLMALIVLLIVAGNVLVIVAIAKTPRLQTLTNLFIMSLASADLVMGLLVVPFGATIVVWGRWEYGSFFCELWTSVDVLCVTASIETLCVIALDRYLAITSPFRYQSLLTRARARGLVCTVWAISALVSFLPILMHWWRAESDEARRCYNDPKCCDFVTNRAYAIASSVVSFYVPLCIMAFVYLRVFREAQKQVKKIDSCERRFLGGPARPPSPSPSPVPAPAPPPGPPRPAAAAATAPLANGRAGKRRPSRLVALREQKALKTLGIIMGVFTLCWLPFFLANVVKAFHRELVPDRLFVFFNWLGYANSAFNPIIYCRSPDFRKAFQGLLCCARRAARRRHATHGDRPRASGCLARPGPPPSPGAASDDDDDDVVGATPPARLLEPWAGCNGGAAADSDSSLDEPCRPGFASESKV
Sequence of human β2‐adrenoceptor (P07550 whole entry): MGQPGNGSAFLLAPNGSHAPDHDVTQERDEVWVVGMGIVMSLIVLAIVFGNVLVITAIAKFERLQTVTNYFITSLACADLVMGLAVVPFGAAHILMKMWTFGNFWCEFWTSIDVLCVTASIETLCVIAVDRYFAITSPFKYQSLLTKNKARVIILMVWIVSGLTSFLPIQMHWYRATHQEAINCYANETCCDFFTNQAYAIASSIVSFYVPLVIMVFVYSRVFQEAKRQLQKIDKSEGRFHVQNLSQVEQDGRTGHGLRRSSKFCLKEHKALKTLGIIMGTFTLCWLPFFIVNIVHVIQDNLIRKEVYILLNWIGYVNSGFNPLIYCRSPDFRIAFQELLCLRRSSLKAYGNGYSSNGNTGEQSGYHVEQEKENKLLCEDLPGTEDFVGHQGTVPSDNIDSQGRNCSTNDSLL

`CCN1CCCC1CNC(=O)c1cc(S(N)(=O)=O)ccc1OC` (stereo not drawn) [sulpiride]: the Kd at human α2A‐adrenoceptor [1] was 31.6 µM. Also, the IC50 at human β2‐adrenoceptor (^3H‐CGP12177, log value) is greater than 1000 µM; against human β1‐adrenoceptor [2], greater than 1000 µM.
As for `CN(C)CCCN1c2ccccc2CCc2ccc(Cl)cc21` [clomipramine], the Kd on human α2A‐adrenoceptor [1] is 1.95 µM.
Take `O=C1NCN(c2ccccc2)C12CCN(CC1COc3ccccc3O1)CC2` (stereo not drawn) [spiroxatrine]: the Kd at human α2C‐adrenoceptor [3] was 0.00182 µM; on human α2A‐adrenoceptor [1] it was 0.107 µM. The IC50 on human β2‐adrenoceptor (^3H‐CGP12177, log value) is greater than 31.6 µM; against human β1‐adrenoceptor [2] it was greater than 31.6 µM.
Take `COc1cc2nc(N(C)CCCNC(=O)C3CCCO3)nc(N)c2cc1OC` (stereo not drawn) [alfuzosin]: at human α2C‐adrenoceptor [4], the “Selectivity ratio α2A vs α2C (higher affinity for α2C)” value is on record as 3.8. Also, on human α2C‐adrenoceptor [4], the “Selectivity ratio α2B vs α2C (higher affinity for α2C)” value is listed as 33.1. Moreover, the Kd was 24 µM on human α2B‐adrenoceptor, 0.724 µM at human α2C‐adrenoceptor [3], 2.75 µM at human α2A‐adrenoceptor [1] and 66.1 µM on human β2‐adrenoceptor. Besides, the “Log KD β1” value on human β1‐adrenoceptor [5] (^3H‐CGP12177 whole cell binding, log values, ^app = apparent KD, 'no binding to' = log top concentration) is “No binding”; at human β1‐adrenoceptor [5] (given as log KD (negative values), 3H-CGP12177 whole cell binding, CHO cells) it was “No binding to -4”. For the same compound, the “Selectivity ratio α2A vs α2B (higher affinity for α2A)” value at human α2A‐adrenoceptor [6] came to 8.7.
Consider `Cn1cc(C(F)(F)F)nc1-c1ccc(OCC(O)CNCCOc2ccc(O)c(C(N)=O)c2)cc1` (stereo not drawn) [CGP20712A], for which the IC50 at human α2B‐adrenoceptor and on human α2A‐adrenoceptor [6] was greater than 100 µM throughout. At human α2C‐adrenoceptor [3], this compound showed a Kd of 6.76 µM.
On to `CN(C)CCCN1c2ccccc2CCc2ccccc21` [imipramine], for which the “Selectivity ratio α2A vs α2C (higher affinity for α2C)” value at human α2C‐adrenoceptor [4] is listed as 4.4. Also, the Kd at human α2B‐adrenoceptor was 0.437 µM; at human α2C‐adrenoceptor [3] it was 1.29 µM; at human α2A‐adrenoceptor [1], 5.62 µM. The “Selectivity ratio α2A vs α2B (higher affinity for α2B)” value on human α2B‐adrenoceptor (ratio of KD values) is reported as 12.9. The “Selectivity ratio α2B vs α2C (higher affinity for α2B)” value on human α2B‐adrenoceptor (ratio of KD values) was determined as 3.0. In addition, the IC50 was greater than 100 µM on human β2‐adrenoceptor (^3H‐CGP12177, log value) and greater than 100 µM at human β1‐adrenoceptor [2].
In the case of `c1ccc2c(c1)OCC(C1=NCCN1)O2` (stereo not drawn) [idazoxan], the IC50 on human β2‐adrenoceptor (^3H‐CGP12177, log value) was greater than 1000 µM; at human β1‐adrenoceptor [2] it was greater than 1000 µM.
The compound `Cc1ccc(OCC(O)C(C)NC(C)C)c2c1CCC2` (stereo not drawn) [ICI118551] yielded an IC50 at human α2B‐adrenoceptor greater than 100 µM. In addition, the results for the Kd at human α2C‐adrenoceptor [3] and at human α2A‐adrenoceptor [1] were 8.91 µM and 9.33 µM, respectively.
Consider `COc1ccccc1N1CCN(CCN2C(=O)c3ccccc3C(C)(C)C2=O)CC1` [ARC 239], for which, at human α2C‐adrenoceptor [4] (fold, higher affinity at α2C than α2A, 1 = no selectivity), the “Selectivity ratio α2A vs α2C (α2C-selective)” value is given as 18.2. The “Log KD α2C” value at human α2C‐adrenoceptor [4] (setting [7]) is -7.25 ± 0.14. The “Selectivity ratio α2A vs α2B (α2B-selective column)” value on human α2B‐adrenoceptor (fold, higher affinity at α2B than α2A, 1 = no selectivity) worked out at 21.4. Also, the “Selectivity ratio α2B vs α2C (α2B-selective column)” value at human α2B‐adrenoceptor (fold, higher affinity at α2B than α2C, 1 = no selectivity) is given as 1.2. Also, the “Log KD α2B” value at human α2B‐adrenoceptor (setting [7]) is reported as -7.32 ± 0.14. In addition, the “IC50 (log) β1” value against human β1‐adrenoceptor [5] (printed as log IC50 bound (negative) in the Log KD β1 column, 3H-CGP12177) is “IC50>-5”. At human β2‐adrenoceptor (printed as log IC50 bound (negative) in the Log KD β2 column, 3H-CGP12177), the “IC50 (log) β2” value is “IC50>-5”. In addition, the “Log KD α2A” value on human α2A‐adrenoceptor [6] (setting [7]) is on record as -5.99 ± 0.06.
On to `CNCCCN1c2ccccc2CCc2ccc(Cl)cc21` [norclomipramine], for which, at human α2C‐adrenoceptor [4], the “Log KD α2C” value is reported as −5.80 ± 0.07^app, the “Selectivity ratio α2A vs α2C (higher affinity for α2C)” value turned out to be 3.2 and the “Selectivity ratio α2B vs α2C (higher affinity for α2C)” value is on record as 1.1. Besides, on human α2B‐adrenoceptor, the “Log KD α2B” value is reported as −5.74 ± 0.04^app. Besides, the “Selectivity ratio α2A vs α2B (higher affinity for α2B)” value on human α2B‐adrenoceptor (ratio of KD values) worked out at 2.8. The “IC50 (log) β1, IC50>top concentration used” value against human β1‐adrenoceptor [5] (^3H‐CGP12177, log value) is on record as “IC50>−4.5”. Moreover, the “IC50 (log) β2, IC50>top concentration used” value on human β2‐adrenoceptor (^3H‐CGP12177, log value) was “IC50>−4.5”. At human α2A‐adrenoceptor [6], the “Log KD α2A” value was −5.29 ± 0.09^app.
Take `O=C1[C@@H]2[C@H]3CC[C@H](C3)[C@@H]2C(=O)N1C[C@@H]1CCCC[C@H]1CN1CCN(c2nsc3ccccc23)CC1` [lurasidone]: the results for the Kd on human α2B‐adrenoceptor and at human α2C‐adrenoceptor [3] were 0.0437 µM and 0.0457 µM, respectively. Moreover, at human β2‐adrenoceptor (^3H‐CGP12177, log value), the IC50 is greater than 10 µM.
Turning to `CCOc1ccccc1OCCN[C@H](C)Cc1ccc(OC)c(S(N)(=O)=O)c1` [tamsulosin], the Kd at human α2C‐adrenoceptor [4] is 0.389 µM; on human α2B‐adrenoceptor it was 4.9 µM; at human α2A‐adrenoceptor [1], 0.468 µM; at human β2‐adrenoceptor it was 0.832 µM; on human β1‐adrenoceptor [2], 0.55 µM. Moreover, the “Selectivity ratio α2A vs α2C (higher affinity for α2C)” value on human α2C‐adrenoceptor [4] amounted to 1.2. In addition, the “Selectivity ratio α2B vs α2C (higher affinity for α2C)” value at human α2C‐adrenoceptor [4] turned out to be 12.6. For the same compound, the “Selectivity ratio α2A vs α2B (higher affinity for α2A)” value at human α2A‐adrenoceptor [6] was found to be 10.5.
